Measured values taken from patent US20240173440A1, “HIGH PURITY COPPER RADIOPHARMACEUTICAL COMPOSITIONS AND DIAGNOSTIC AND THERAPEUTIC USES THEREOF” (Nuclidium AG, priority 2022, published 2024).

Columns and labels:
[1] = biological target: PSMA (Homo sapiens (Human), UniProt Q04609); assay: PET/CT imaging in a patient with metastatic prostate cancer; assay type: in vivo; conditions: metastatic castration resistant prostate cancer, imaging 3 hours after administration
Experimental: Radiopharmaceutical preparation: The reaction is carried out in a GE Healthcare FASTlab 2 module. A 40 μg (28 nmol) aliquot of lyophilized NODAGA-PSMA-I&T (piCHEM, Austria) was dissolved in up to 6 mL 0.5 M sodium acetate (pH 8) and ascorbic acid (20 μg/mL), and transferred to a reaction vial. Then [^61Cu]CuCl2 in 0.05 M hydrochloric acid (0.3-1.0 GBq/mL) (3 mL) was added to the NODAGA-PSMA-I&T solution, reaching a pH between 4.5 and 6.5. The obtained reaction solution was incubated for 10 min at room temperature (approx. 20-25° C.) and dispensed to the product vial (20 mL sterile evacuated vial) over a sterile Cathivex-GV 25 mm PVDF 0.22 μm filter. The product was finally diluted with 0.9% sodium chloride for injection (B. Braun, Germany) up to 12 mL. [^61Cu]Cu-NODAGA-PSMA-I&T is produced with high radiochemical purity (≥95%). Therefore, no further purification step is necessary. All the chemicals used are trace metal grade.
The patient was co-administered […] furosemide (Lasix®, Sanofi-Aventis, Frankfurt, Germany). The imaging was performed at 3 hours following radiotracer administration on a Biograph Vision 600 (Siemens, Germany) PET/CT scanner. These images, shown in FIG. 35, were obtained from the skull to mid-thigh and reconstructed into multiplanar PT, CT, and fused PET/CT images. CT was used for attenuation correction.

[2] = tested on: LNCaP xenografts; assay: Quantitative biodistribution in LNCaP xenografted mice; assay type: in vivo; conditions: for kidney uptake: 1h p.i.
Experimental: The mice were randomly distributed in groups and euthanized at 1 and at 4 hours post-injection. The organs of interest were collected, rinsed, blotted, weighed and counted in a gamma counter. The results are expressed as percentage of injected activity per gram (% IA/g), representing the mean±standard deviation of n=4-8 mice per group and they were obtained by extrapolation from counts of an aliquot taken from the injected solution as standard.
The biodistribution of the [^61Cu]Cu-NODAGA radiotracers was compared with the reference compounds used in patients under identical experimental conditions. The mice were randomly distributed in groups, injected with the radiotracer under investigation and euthanized at 1 and at 4 hours post-injection of the radiotracers under investigation. The organs of interest were collected, rinsed, blotted, weighed and counted in a gamma counter. The results are expressed as percentage of injected activity per gram (% IA/g), representing the mean±standard deviation of all mice per group and they were obtained by extrapolation from counts of an aliquot taken from the injected solution as standard.

[3] = Lipophilicity, log D by shake-flask method (1-octanol/PBS pH 7.4); assay type: physicochemical; conditions: shake-flask, Table 17, mean ± SD
Method in brief: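 Radiotracer shaken 30 min in pre-saturated 1-octanol/PBS pH 7.4 (1:1), then centrifuged for phase separation. Radioactivity in each phase measured by gamma counting; log D reported as the average log of organic/PBS activity ratio.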

[4] = tested on: LNCaP xenografts; assay: PET/CT imaging in LNCaP xenografted mice; assay type: in vivo; conditions: LNCaP-xenografted nude mice
Experimental: Tumor xenografted mice were injected intravenously into the tail vein with the tested radiotracer. […] Mice were anesthetized with 1.5% isoflurane and dynamic PET scans were acquired during 1 hour upon injection of the radiotracer. The mice were euthanized by CO2 at 4 hours p.i., the bladder was mechanically emptied, and static PET scans were acquired for 30 min. PET images were acquired using the R-CUBE PET scanner system (MOLECUBES, Gent, Belgium) and they were decay corrected and reconstructed with the VivoQuant software version 4.0. The CT was imaged supine, headfirst, using the NanoSPECT/CT™ scanner (Bioscan Inc.). Topograms and helical CT scans of the whole mouse were first acquired using the following parameters: X-ray tube current: 177 μA, X-ray tube voltage 45 kVp, 90 seconds and 180 frames per rotation, pitch 1. CT images were reconstructed using CTReco (version r1.146), with a standard filtered back projection algorithm (exact cone beam) and post-filtered (RamLak, 100% frequency cut-off), resulting in a pixel size of 0.2 mm. Co-registered PET/CT images were visualized using maximum intensity projection (MIP) with InVivoScope (version 1.43, Bioscan Inc.). The results are presented in the Examples that follow.

[5] = LNCap xenograft mice, 1 h after injection
[6] = LNCap xenograft mice, 4 h after injection

Chain of PSMA (Q04609 whole entry): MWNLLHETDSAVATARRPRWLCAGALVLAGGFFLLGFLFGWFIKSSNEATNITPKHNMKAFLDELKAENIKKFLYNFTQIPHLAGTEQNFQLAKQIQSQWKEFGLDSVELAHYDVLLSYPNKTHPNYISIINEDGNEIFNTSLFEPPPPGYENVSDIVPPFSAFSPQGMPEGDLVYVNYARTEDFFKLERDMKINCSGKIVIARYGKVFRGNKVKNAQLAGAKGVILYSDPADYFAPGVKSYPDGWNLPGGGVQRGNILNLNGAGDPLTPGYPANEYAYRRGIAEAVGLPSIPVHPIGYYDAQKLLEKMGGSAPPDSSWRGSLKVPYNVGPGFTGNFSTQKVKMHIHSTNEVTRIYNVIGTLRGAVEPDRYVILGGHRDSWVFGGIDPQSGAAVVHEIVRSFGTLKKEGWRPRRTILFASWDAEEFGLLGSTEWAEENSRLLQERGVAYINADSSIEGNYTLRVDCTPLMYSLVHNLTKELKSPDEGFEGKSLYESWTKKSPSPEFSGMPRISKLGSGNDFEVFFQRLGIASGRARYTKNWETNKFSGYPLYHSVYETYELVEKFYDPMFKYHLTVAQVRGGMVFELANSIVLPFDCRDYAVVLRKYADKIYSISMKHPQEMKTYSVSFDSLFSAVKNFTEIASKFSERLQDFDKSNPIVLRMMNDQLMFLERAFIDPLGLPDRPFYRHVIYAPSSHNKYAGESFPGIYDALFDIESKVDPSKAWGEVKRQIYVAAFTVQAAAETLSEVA

Structure (SMILES): O=C(O)CC[C@H](NC(=O)N[C@@H](CCCCNC(=O)CCCCCCC(=O)NCCCC[C@@H](NC(=O)[C@@H](Cc1ccccc1)NC(=O)[C@@H](Cc1ccc(O)c(I)c1)NC(=O)CC[C@H](C(=O)O)N1CCN2CCN(CC1)CC(=O)[O][61Cu][O]C(=O)C2)C(=O)O)C(=O)O)C(=O)O [[^61Cu]Cu-NODAGA-PSMA-I&T]
- tracer uptake on PET/CT in patient [1]: intense tracer uptake by multiple osseous, pelvic lymph node, and liver metastases
- Biodistribution Adrenal ([2]; 1 hour p.i., LNCaP xenografts): 17.3 ± 3.26 % IA/g
- Biodistribution Blood ([2]; 1 hour p.i., LNCaP xenografts): 0.28 ± 0.06 % IA/g
- Biodistribution Bone ([2]; 1 hour p.i., LNCaP xenografts): 2.73 ± 0.91 % IA/g
- Biodistribution Heart ([2]; 1 hour p.i., LNCaP xenografts): 0.45 ± 0.15 % IA/g
- Biodistribution Intestine ([2]; 1 hour p.i., LNCaP xenografts): 2.11 ± 0.78 % IA/g
- Biodistribution Kidneys ([2]; 1 hour p.i., LNCaP xenografts): 118 ± 13 % IA/g
- Biodistribution LNCaP-tumor ([2]; 1 hour p.i., LNCaP xenografts): 14.0 ± 5.0 % IA/g
- Biodistribution Liver ([2]; 1 hour p.i., LNCaP xenografts): 1.02 ± 0.28 % IA/g
- Biodistribution Lung ([2]; 1 hour p.i., LNCaP xenografts): 1.69 ± 0.45 % IA/g
- Biodistribution Muscle ([2]; 1 hour p.i., LNCaP xenografts): 1.12 ± 0.32 % IA/g
- Biodistribution Pancreas ([2]; 1 hour p.i., LNCaP xenografts): 0.97 ± 0.36 % IA/g
- Biodistribution Salivary glands ([2]; 1 hour p.i., LNCaP xenografts): 2.01 ± 0.33 % IA/g
- Biodistribution Spleen ([2]; 1 hour p.i., LNCaP xenografts): 6.04 ± 1.87 % IA/g
- Biodistribution Stomach ([2]; 1 hour p.i., LNCaP xenografts): 1.13 ± 0.20 % IA/g
- Ratio Tumor/Blood ([2]; 1 hour p.i., LNCaP xenografts): 55.8 ± 20.0
- Ratio Tumor/Kidney ([2]; 1 hour p.i., LNCaP xenografts): 0.13 ± 0.03
- Ratio Tumor/Liver ([2]; 1 hour p.i., LNCaP xenografts): 14.9 ± 4.9
- Ratio Tumor/Muscles ([2]; 1 hour p.i., LNCaP xenografts): 13.6 ± 3.75
- kidney uptake ([2]; injected amount 200 μmol (so in the source)): 96 % IA/g
- kidney uptake ([2]; injected amount 400 μmol (so in the source)): 72 % IA/g
- kidney uptake ([2]; injected amount 1000 μmol (so in the source)): 34 % IA/g
- Biodistribution Adrenal ([2]; 4 hours p.i., LNCaP xenografts): 8.32 ± 2.87 % IA/g
- Biodistribution Blood ([2]; 4 hours p.i., LNCaP xenografts): 0.10 ± 0.03 % IA/g
- Biodistribution Bone ([2]; 4 hours p.i., LNCaP xenografts): 1.34 ± 0.48 % IA/g
- Biodistribution Heart ([2]; 4 hours p.i., LNCaP xenografts): 0.22 ± 0.05 % IA/g
- Biodistribution Intestine ([2]; 4 hours p.i., LNCaP xenografts): 1.06 ± 0.50 % IA/g
- Biodistribution Kidneys ([2]; 4 hours p.i., LNCaP xenografts): 91 ± 10 % IA/g
- Biodistribution LNCaP-tumor ([2]; 4 hours p.i., LNCaP xenografts): 10.7 ± 3.3 % IA/g
- Biodistribution Liver ([2]; 4 hours p.i., LNCaP xenografts): 0.72 ± 0.11 % IA/g
- Biodistribution Lung ([2]; 4 hours p.i., LNCaP xenografts): 0.74 ± 0.19 % IA/g
- Biodistribution Muscle ([2]; 4 hours p.i., LNCaP xenografts): 0.50 ± 0.22 % IA/g
- Biodistribution Pancreas ([2]; 4 hours p.i., LNCaP xenografts): 0.45 ± 0.09 % IA/g
- Biodistribution Salivary glands ([2]; 4 hours p.i., LNCaP xenografts): 0.52 ± 0.06 % IA/g
- Biodistribution Spleen ([2]; 4 hours p.i., LNCaP xenografts): 1.28 ± 0.39 % IA/g
- Biodistribution Stomach ([2]; 4 hours p.i., LNCaP xenografts): 0.66 ± 0.15 % IA/g
- Ratio Tumor/Blood ([2]; 4 hours p.i., LNCaP xenografts): 109 ± 43
- Ratio Tumor/Kidney ([2]; 4 hours p.i., LNCaP xenografts): 0.12 ± 0.03
- Ratio Tumor/Liver ([2]; 4 hours p.i., LNCaP xenografts): 15.4 ± 5.7
- Ratio Tumor/Muscles ([2]; 4 hours p.i., LNCaP xenografts): 25.4 ± 12.0
- tumor uptake ([2]; 4h p.i., LNCaP xenograft mice, comparison with reference radiotracer, p=0.0145): 10.7±3.3 % IA/g
- accumulation in tumor and target-positive tissues ([2]; LNCaP xenografts): high accumulation in PSMA-positive (LNCaP) tumor and PSMA-positive tissues
- Biodistribution Adrenal [2, 5]: 17.3 ± 3.26 % IA/g
- Biodistribution Blood [2, 5]: 0.28 ± 0.06 % IA/g
- Biodistribution Bone [2, 5]: 2.73 ± 0.91 % IA/g
- Biodistribution Heart [2, 5]: 0.45 ± 0.15 % IA/g
- Biodistribution Intestine [2, 5]: 2.11 ± 0.78 % IA/g
- Biodistribution Kidney [2, 5]: 118 ± 13 % IA/g
- Biodistribution LNCaP-tumor [2, 5]: 14.0 ± 5.0 % IA/g
- Biodistribution Liver [2, 5]: 1.02 ± 0.28 % IA/g
- Biodistribution Lung [2, 5]: 1.69 ± 0.45 % IA/g
- Biodistribution Muscle [2, 5]: 1.12 ± 0.32 % IA/g
- Biodistribution Pancreas [2, 5]: 0.97 ± 0.36 % IA/g
- Biodistribution Salivary gland [2, 5]: 2.01 ± 0.33 % IA/g
- Biodistribution Spleen [2, 5]: 6.04 ± 1.87 % IA/g
- Biodistribution Stomach [2, 5]: 1.13 ± 0.20 % IA/g
- Ratio Tumor/Blood [2, 5]: 55.8 ± 20.0
- Ratio Tumor/Kidney [2, 5]: 0.13 ± 0.03
- Ratio Tumor/Liver [2, 5]: 14.9 ± 4.9
- Ratio Tumor/Muscles [2, 5]: 13.6 ± 3.75
- Biodistribution Adrenal [2, 6]: 8.32 ± 2.87 % IA/g
- Biodistribution Blood [2, 6]: 0.10 ± 0.03 % IA/g
- Biodistribution Bone [2, 6]: 1.34 ± 0.48 % IA/g
- Biodistribution Heart [2, 6]: 0.22 ± 0.05 % IA/g
- Biodistribution Intestine [2, 6]: 1.06 ± 0.50 % IA/g
- Biodistribution Kidney [2, 6]: 90.9 ± 10.1 % IA/g
- Biodistribution LNCaP-tumor [2, 6]: 10.7 ± 3.3 % IA/g
- Biodistribution Liver [2, 6]: 0.72 ± 0.11 % IA/g
- Biodistribution Lung [2, 6]: 0.74 ± 0.19 % IA/g
- Biodistribution Muscle [2, 6]: 0.50 ± 0.22 % IA/g
- Biodistribution Pancreas [2, 6]: 0.45 ± 0.09 % IA/g
- Biodistribution Salivary gland [2, 6]: 0.52 ± 0.06 % IA/g
- Biodistribution Spleen [2, 6]: 1.28 ± 0.39 % IA/g
- Biodistribution Stomach [2, 6]: 0.66 ± 0.15 % IA/g
- Ratio Tumor/Blood [2, 6]: 109 ± 43
- Ratio Tumor/Kidney [2, 6]: 0.12 ± 0.03
- Ratio Tumor/Liver [2, 6]: 15.4 ± 5.7
- Ratio Tumor/Muscles [2, 6]: 25.4 ± 12.0
- log D(O/PBS pH 7.4) [3]: −2.95±0.08
- distribution on PET/CT images [4]: accumulated in the tumor, increasing from 15 up to 60 min p.i., and in the kidneys
